Measured values reported in publication PMC8478281, “Targeting the FtsZ Allosteric Binding Site with a Novel Fluorescence Polarization Screen, Cytological and Structural Approaches for Antibacterial Discovery” (Journal of Medicinal Chemistry, 2021).
Values after ≈ are worked out from the molar mass of the structure shown. Where two headings read alike, the source gives them in different places.

How the values were obtained:
BsFtsZ = target: T1, BsFtsZ (Bacillus subtilis, UniProt P17865); experiment: Fluorescence anisotropy of probes after consecutive additions of FtsZ, GMPCPP, MgCl2 and PC190723; format: binding; settings: for Fluorescence anisotropy (r): free probe: probe 10 μM in buffer; for Fluorescence anisotropy (r): + FtsZ (unassbld.) / Fluorescence anisotropy (r): + GMPCPP / Fluorescence anisotropy (r): + MgCl2 (polymer): probe 10 μM, FtsZ 10 μM; for Fluorescence anisotropy (r): + GMPCPP / Fluorescence anisotropy (r): + MgCl2 (polymer): GMPCPP 0.1 mM; for Fluorescence anisotropy (r): + MgCl2 (polymer): MgCl2 10 mM, 5–10 min
T1 construct: made in house
Description: (A) Fluorescence anisotropy values of the free probes (10 μM) in buffer, to which FtsZ (10 μM, unassembled) was added, followed by the slowly hydrolyzable GTP analogue GMPCPP (0.1 mM). BsFtsZ polymerization was then induced by the addition of MgCl2 (10 mM) and anisotropy values were recorded 5–10 min later. Nonfluorescent PC190723 (10 μM) was subsequently added to displace the fluorescent probe and anisotropy was measured 5 min later. (B) Fluorescence microscopy images of B. subtilis cells treated for 1.5 h with the minimal division inhibitory concentrations (MDC) of (S)-2 and each enantiomer of 5 (Table S1), acquired employing the probe fluorescence.
(§1) FtsZ from B. subtilis (BsFtsZ) was prepared as described previously.[35] FtsZ was assembled in 50 mM N-(2-hydroxyethyl)piperazine-N′-ethanesulfonic acid (HEPES)-KOH, 50 mM KCl, 1 mM ethylenediaminetetraacetic acid (EDTA), pH 6.8 (HEPES buffer) plus 10 mM MgCl2, and 1 mM GTP or 0.1 mM GMPCPP at 25 °C. FtsZ assembly was monitored by light scattering.[34]

B. subtilis [1] = experiment: Minimal growth inhibitory concentration (broth macrodilution), B. subtilis; format: cell-based, Bacillus subtilis; settings: for MIC B. subtilis: Table S1, fluorescent probes; for MIC: Bacillus subtilis
Description: (§2) B. subtilis 168 and Staphylococcus spp. were grown in cation adjusted Mueller–Hinton broth (CAMHB; Becton, Dickinson and Company) at 37 °C. B. subtilis SU570 were grown in the same medium at 30 °C. In all cases, the cells were grown to an absorbance of 0.1–0.2 at 600 nm and then incubated either with the compounds or DMSO vehicle. Microscopy assays and cell measurement were performed as previously described.[31] MIC values were determined by a broth macrodilution method.[51] MBC values were determined as the lowest concentration of inhibitor at which there was a 99.9% reduction in colony-forming units/mL compared to the inoculum. To construct a S. aureus strain expressing FtsZ-mCherry, the plasmid pCN-ftsZmch[9] was electroporated into RN4220 and 0.1 μM cadmium chloride (Sigma-Aldrich) was used to induce the expression of the construct under the control of the Pcad promoter.

[2] = target: T2, FtsZ-GMPCPP polymers (BsFtsZ) (Bacillus subtilis, UniProt P17865); experiment: Binding titration of the fluorescent probes to FtsZ polymers by fluorescence anisotropy; settings: for Imax/Imin / rmax (all probe bound) / rmin (free probe) / Kd: FtsZ-GMPCPP polymers, best fit values from binding titrations
T2 construct: made in house
Description: as §1
The fluorescence spectra and anisotropy values of the different probes were acquired with a Fluoromax-4 (Horiba Jobin Yvon) photon-counting L-format spectrofluorometer using 2 mm × 10 mm cells at 25 °C, employing the maximum excitation and emission wavelength for each probe with 2 and 5 nm bandwidths, respectively. Anisotropy values were automatically measured as r = (Ivv – G Ivh)/(Ivv + 2G Ivh), where the subscripts refer to the vertical (v) or horizontal (h) positions of the excitation (first subscript) and emission (second subscript) polarizers, and G = Ihv/Ihh. Total intensity values were simultaneously determined as IT = Ivv +2G Ivh. Note that measurement correction procedures with T-format (double channel) fluorometers and with plate readers are slightly different.
(§3) FtsZ (10–15 μM) was assembled in HEPES buffer, 10 mM MgCl2, 50 μM GMPCPP at 25 °C for 10 min, and then 0.15% (v/v) glutaraldehyde[36] (distilled grade for microscopy, TAAB Laboratories, U.K.) was added to the solution that was incubated at 25 °C for 10 min more. (This was the minimal glutaraldehyde concentration determined to stabilize FtsZ polymers specifically binding probe 1.) The remains of the cross-linking agent were quenched by adding 60 mM NaBH4, the sample was incubated on ice for 10 min and degassed.[36] Cross-linked polymers were centrifuged for 10 min at 8200g (5000 rpm) and 4 °C in 15 mL Falcon tubes employing a Rotina 380R (Hettich) centrifuge, the supernatant was removed and the pellet was resuspended in the same volume of HEPES buffer, 10 mM MgCl2, containing 5 μM GMPCPP. Fixed FtsZ polymers were active in binding assays after more than 2 days at 4 °C; they could also be frozen in liquid nitrogen with a small loss of binding capacity. […] Cross-linked polymers of SaFtsZ were similarly prepared.
Binding affinity of the probes to FtsZ was measured by an increase in anisotropy of the probe (adapted from ref ([49])). Fixed concentrations of the probes (3 μM) were titrated with different FtsZ polymer concentrations (0–40 μM) in HEPES buffer with Mg^2+, to obtain the anisotropy increment, Δrmax, corresponding to the bound probe. The increase in anisotropy was plotted against the FtsZ polymer concentration (calculated by subtracting from the total protein concentration the critical concentration for polymerization under the same conditions) and iteratively least-squares fitted with an isotherm of binding to one site. The estimated values of Δrmax were used to approximate the free FtsZ concentrations, and these new values were employed again until an unchanging Δrmax value was obtained. The convergent data were used to calculate the binding constant of the fluorescent probe to FtsZ polymers (Table S1).

S. aureus Mu50 = experiment: Minimal growth inhibitory concentration (broth macrodilution), S. aureus Mu50; format: cell-based, Staphylococcus aureus; settings: for MIC S. aureus Mu50: Table S1, fluorescent probes; for MIC: Staphylococcus aureus, MU50, read-out: MIC S. aureus Mu50
Description: as §2

B. subtilis [3] = experiment: Minimal division inhibitory concentration and cell division phenotype, B. subtilis; format: cell-based, Bacillus subtilis; settings: for toxicity to the bacterial cells, in words: B. subtilis cell division tests; for minimal effective concentration: Bacillus subtilis, read-out: MDC B. subtilis
Description: as §2

[4] = Solubility in HEPES buffer with 2% DMSO, spectrophotometric; format: physicochemical; settings: HEPES buffer containing 2% DMSO, 25 °C, aqueous buffer, kinetic from dmso stock; HEPES buffer pH 6.8 containing 2% DMSO
Description: 3.2. Solubility of Compounds. Stock solutions of compounds were prepared in
DMSO (spectroscopic grade, Merck) a nd stored at -20 °C. Compound solubility in 50
mM HEPES-KOH, 50 mM KCl, 1 mM EDTA, pH 6.8 (HEPES buffer) containing 2%
DMSO was determined spectrophotometrically, monitoring the linear correlation
between the absorbance and the compound concentration and the absence of light
scattering. The solutions were optionally centrifuged at 100000 rpm for 20 min at 25 °C
in a TLA100 rotor with a Beckman Optima Max -XP ultracentrifuge.

[5] = target: T3, stabilized polymers of FtsZ from B. subtilis (Bacillus subtilis, UniProt P17865); experiment: Competition assay: displacement of probe (R)-5 from stabilized BsFtsZ-GMPCPP polymers; format: binding; settings: for Kd: stabilized polymers of FtsZ from B. subtilis, probe (R)-5, mean ± SEM, read-out: KD
T3 construct: made in house
Description: as §3
Competition assays were performed by measuring, through the decrease in fluorescence anisotropy, the displacement of the fluorescent probes from stabilized FtsZ polymers. Increasing concentrations of competing ligands were added to the mixtures of cross-linked FtsZ polymers (10–15 μM) with probe 1 (3 μM), 7–8 μM FtsZ polymers with probe (S)-2 (3 μM), or 2–3 μM FtsZ polymers with (R)-5 (3 μM). HEPES buffer with 10 mM MgCl2 and 0.1 mM GMPCPP was employed, with a final volume of 0.5 mL, and the anisotropy measured at 25 °C. Under these conditions, the initial fraction of the probe bound was between 0.4 and 0.5. The fraction of the probe bound (Vb) was calculated [drawing 1] where rfree and rmax are the anisotropy values of the free and bound probes, respectively, and R is the ratio between the fluorescence intensities of the bound and free probe (Table S1). The binding data were plotted against the competing ligand concentration and fitted by competition equilibrium of the ligand and the probe for the same binding site. The resulting system of equations[50] was numerically solved using the Equigra v. 5.0 program,[33] which provided the best-fitted value of the competitor binding constant.

[6] = PC190723 10 μM added to the polymer, 5 min

T1 sequence (P17865 whole entry): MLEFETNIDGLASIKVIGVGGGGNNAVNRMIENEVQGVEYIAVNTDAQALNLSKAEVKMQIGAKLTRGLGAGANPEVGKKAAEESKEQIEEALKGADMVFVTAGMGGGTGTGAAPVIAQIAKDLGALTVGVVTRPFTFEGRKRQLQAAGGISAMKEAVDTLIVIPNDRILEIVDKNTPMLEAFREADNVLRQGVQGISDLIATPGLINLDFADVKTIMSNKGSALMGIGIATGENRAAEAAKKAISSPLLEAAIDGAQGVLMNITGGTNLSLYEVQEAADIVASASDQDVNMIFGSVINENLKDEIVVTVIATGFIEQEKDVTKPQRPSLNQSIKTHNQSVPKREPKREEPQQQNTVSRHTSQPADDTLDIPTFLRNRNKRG
T2 sequence (P17865 whole entry): as above
T3 sequence (P17865 whole entry): as above

Row | Compound | Fluorescence anisotropy (r): + PC190723 (BsFtsZ; [6]) | Fluorescence anisotropy (r): free probe (BsFtsZ) | Fluorescence anisotropy (r): + FtsZ (unassbld.) (BsFtsZ) | Fluorescence anisotropy (r): + GMPCPP (BsFtsZ) | Fluorescence anisotropy (r): + MgCl2 (polymer) (BsFtsZ) | solubility [4] | MIC (B. subtilis [1]; read-out: MIC B. subtilis) | MIC (S. aureus Mu50) | Kd [5] | minimal effective concentration (B. subtilis [3]) | other results
1 | 2,6-Difluoro-3-[(1-{[(7-nitro-2,1,3-benzoxadiazol-4-yl)amino]methyl}nonyl)-oxy]benzamide [Compound 4] | 0.324 | 0.045 | 0.130 | 0.186 | 0.317 |  |  |  |  |  | 
2 | CCC[C@H](CNc1ccc([N+](=O)[O-])c2nonc12)Oc1ccc(F)c(C(N)=O)c1F [(R)-2] | 0.051 | 0.037 | 0.046 | 0.050 | 0.081 |  |  |  |  |  | MIC B. subtilis (B. subtilis [1]): > 250 µM; Imax/Imin [2]: 1.0; rmax (all probe bound) [2]: 0.067; rmin (free probe) [2]: 0.038; MIC S. aureus Mu50 (S. aureus Mu50): > 250 µM; inhibition of B. subtilis cell division, in words (B. subtilis [3]): inactive
3 | CCC[C@@H](CNc1ccc([N+](=O)[O-])c2nonc12)Oc1ccc(F)c(C(N)=O)c1F [(S)-2] | 0.065 | 0.037 | 0.041 | 0.044 | 0.172 |  |  |  |  |  | MIC B. subtilis (B. subtilis [1]): 250 µM (≈ 105 µg/mL); Imax/Imin [2]: 2.4; rmax (all probe bound) [2]: 0.258; rmin (free probe) [2]: 0.028; Kd [2]: 8 ± 1 µM; MIC S. aureus Mu50 (S. aureus Mu50): > 250 µM
4 | CCC[C@@H](COc1ccc(F)c(C(N)=O)c1F)Nc1ccc([N+](=O)[O-])c2nonc12 [(S)-5] | 0.038 | 0.030 | 0.042 | 0.041 | 0.096 |  |  |  |  |  | MIC B. subtilis (B. subtilis [1]): 250 µM (≈ 105 µg/mL); fold reduced affinity with respect to (R)-5 [2]: 8 fold; Imax/Imin [2]: 1.7; rmax (all probe bound) [2]: 0.178; rmin (free probe) [2]: 0.025; Kd [2]: 15 ± 2 µM; MIC S. aureus Mu50 (S. aureus Mu50): > 250 µM
5 | CCCC(CNc1ccc([N+](=O)[O-])c2nonc12)Oc1ccc(F)c(C(N)=O)c1F (stereo not drawn) [Compound 2, 2,6-Difluoro-3-[(1-{[(7-nitro-2,1,3-benzoxadiazol-4-yl)amino]methyl}butyl)oxy]benzamide] | 0.053 | 0.037 | 0.039 | 0.046 | 0.157 |  |  |  |  |  | 
6 | CCCCCC(CNc1ccc([N+](=O)[O-])c2nonc12)Oc1ccc(F)c(C(N)=O)c1F (stereo not drawn) [Compound 3, 2,6-Difluoro-3-[(1-{[(7-nitro-2,1,3-benzoxadiazol-4-yl)amino]methyl}hexyl)oxy]benzamide] | 0.135 | 0.049 | 0.104 | 0.115 | 0.261 |  |  |  |  |  | 
7 | CCCC(COc1ccc(F)c(C(N)=O)c1F)Nc1ccc([N+](=O)[O-])c2nonc12 (stereo not drawn) [Compound 5, 2,6-Difluoro-3-{2-[(4-nitro-2,1,3-benzoxadiazol-7-yl)amino]pentoxy}benzamide] |  | 0.031 | 0.034 | 0.036 | 0.203 |  |  |  |  |  | Fluorescence anisotropy (r): + PC190723 (BsFtsZ; [PC190723] = 30 μM): 0.055
8 | CCCN(Cc1cccc(Cl)c1)c1cccc(C(N)=O)c1 [Compound 8] |  |  |  |  |  | 5 µM (≈ 1.51 µg/mL) |  |  |  |  | toxicity to the bacterial cells, in words (B. subtilis [3]): toxic to the bacterial cells
9 | NC(=O)c1cccc(OCc2cccc(Cl)c2)c1 [Compound 11] |  |  |  |  |  | 100 µM (≈ 26.2 µg/mL) | 50 µM (≈ 13.1 µg/mL) | > 100 µM | 9.3 ± 0.5 µM | 50 µM | fold lower KD and MDC than 3-aminobenzamide analogue 6 [5]: more than 10 fold
10 | NC(=O)c1cccc(OCCc2cccc(Cl)c2)c1 [Compound 12] |  |  |  |  |  | ≥ 100 µM | 100 µM (≈ 27.6 µg/mL) | > 100 µM | 7.1 ± 0.5 µM | 50 µM | 
11 | NC(=O)c1cccc(OCCCc2cccc(Cl)c2)c1 [Compound 13] |  |  |  |  |  | 25 µM (≈ 7.24 µg/mL) | 100 µM (≈ 29 µg/mL) | > 100 µM | 9.5 ± 0.5 µM | 25 µM | 
12 | NC(=O)c1ccc(OCc2cccc(Cl)c2)cc1 [Compound 14] |  |  |  |  |  |  |  |  |  |  | MIC (B. subtilis [1]): > 500 µM; toxicity to the bacterial cells, in words (B. subtilis [3]): toxic
13 | NC(=O)c1c(F)ccc(OCc2ccccc2C(F)(F)F)c1F [Compound 19] |  |  |  |  |  | 50 µM (≈ 16.6 µg/mL) | > 100 µM | > 100 µM | 71 ± 6 µM | > 100 µM | 
14 | NC(=O)c1c(F)ccc(OCc2ccc(C(F)(F)F)cc2)c1F [Compound 21] |  |  |  |  |  | 100 µM (≈ 33.1 µg/mL) | 50 µM (≈ 16.6 µg/mL) | 100 µM (≈ 33.1 µg/mL) | 6.7 ± 0.4 µM | 25 µM | 
